In paper PMC9696085, “Fully Symmetric Cyclodextrin Polycarboxylates: How to Determine Reliable Protonation Constants from NMR Titration Data” (International Journal of Molecular Sciences, 2022):
“And” between values parts separate entries of the source, which are not always exact repeats. Equal entries are not always repeated. Where two headings read alike, the source gives them in different places. Values belong to the molecule of their own block, whether it stands above or below them.

Experiments:
[1] = 1H NMR-pH titration, protonation constants; format: physicochemical; conditions: for pε12 = averaged interactivity parameter pε¯: site-binding model with a single interactivity parameter; for log kA (carboxylate core microconstant): site-binding model with a single interactivity parameter pε12 (pε¯); for log k: site-binding model without any pair-interactivity parameters (unsatisfactory fit); for pKa: H2O:D2O = 9:1 solvent mixture
Protocol: The pH meter readings were recorded using a Metrohm pH meter, equipped with a Metrohm 6.0234.110 combined glass electrode. A four-point calibration using pH 2.00, pH 4.00, pH 7.00 and pH 11.00 standard buffer solutions were performed directly before pH adjustments. The pH measurements were performed in 25 mL vessels with proper stirring before transferring 600 μL sample solutions into the NMR tubes. Solutions were prepared in the pH range of 1.50–8.70 with 0.30 increments using 0.9 M, 0.5 M and 0.1 M sodium hydroxide and hydrochloric acid solutions in H2O:D2O = 9:1.
For structural characterizations of CD derivatives in D2O, a 600 MHz Varian DDR NMR spectrometer equipped with a 5 mm inverse-detection gradient probe or a 400 MHz Varian Mercury Plus spectrometer equipped with a 5mm Varian 400 Automation Triple Resonance Broadband Pulsed Field Gradient probe was used. For NMR-pH titrations, the same instruments were used. The pH-dependent series of ^1H NMR spectra were recorded in a solvent mixture of H2O:D2O = 9:1 by volume, where the constant ionic strength and the buffer capacity were adjusted using 0.05 M sodium chloride and 0.05 M acetic acid-d4. An appropriate amount of CD was weighed to obtain a 1 mM solution and finally one drop of methanol was added as a chemical shift reference (3.310 ppm). The water resonance was diminished by the dpfgse pulse sequence or presaturation. All the spectra were processed using the MestReNova v9.0.1-13254 (Mestralab Research, S.L., Santiago de Compostela, Spain) software.
The standard macroscopic evaluation of NMR-pH titration curves (Equation (3) in Section 2.2) was performed with the following software tools: Microcal Origin Pro 8 (OriginLab Corp., Northampton, MA, USA), HypNMR2018 [38], OPIUM [39] and home-written R scripts (R version 4.1.2, The R Foundation, Vienna, Austria) using the nls module. The equidistant macroscopic (Equation (8)) and Q-fitting (Equations (4) and (11)) models were fitted both by Origin and our R-scripts to verify their equivalent performance regarding statistical description of the parameter estimates. The microscopic cluster expansion model in Section 2.5 requires summation of >100 variables which is unfeasible in the form of an explicit model function required by commercial data-fitting software like Origin. The enumeration of microspecies was therefore accomplished in a custom-written R script. To assess the robustness of our data-fitting model as well as the error propagation of the optimized log k and pε parameters to the derived log K macroconstants, Monte Carlo simulations on >1000 replicates were performed in R.

[2] = design: method as in PMID 18613172; conditions: literature, cited from earlier work
[3] = ED macro or Q-fitting evaluation, ? = physically unrealistic, SD in parentheses
[4] = ED macro or Q-fitting evaluation, H2O:D2O = 9:1, 0.05 M NaCl, SD in parentheses
[5] = converted from optimized microscopic basicity parameters (site-binding model)
[6] = from ED macro or Q-fitting macroconstants by Eq. 18
[7] = from ED macro or Q-fitting macroconstants by Eq. 18, ? = physically unrealistic
[8] = site-binding (SB) microscopic evaluation
[9] = site-binding (SB) microscopic evaluation, converted from log kA and pε, errors by Monte Carlo
[10] = site-binding model with two interactivity parameters, standard deviation 138, overparametrized

log K4 [1, 3]: 5.28 (0.22)
log K5 [1, 3]: 5.14 (0.22)
log K6 [1, 3]: 4.59 (0.17)
log K1 [1, 4]: 6.68 (0.08)
log K2 [1, 4]: 6.17 (0.12)
log K3 [1, 4]: 5.88 (0.16)
log K8 ([1]; ED macro or Q-fitting evaluation, SD in parentheses): 3.78 (0.07)
macroscopic pKa, 1st of the set [1, 5]: 3.83
macroscopic pKa, 2nd of the set [1, 5]: 4.28
macroscopic pKa, 3rd of the set [1, 5]: 4.65
macroscopic pKa, 4th of the set [1, 5]: 5.03
macroscopic pKa, 5th of the set [1, 5]: 5.43
macroscopic pKa, 6th of the set [1, 5]: 5.81
macroscopic pKa, 7th of the set [1, 5]: 6.18
macroscopic pKa, 8th of the set [1, 5]: 6.64
log k¯1 (averaged microconstant) [1, 6]: 5.77 (0.08)
log k¯2 (averaged microconstant) [1, 6]: 5.63 (0.12)
log k¯3 (averaged microconstant) [1, 6]: 5.58 (0.16)
log k¯8 (averaged microconstant) [1, 6]: 4.69 (0.07)
log k¯4 (averaged microconstant) [1, 7]: 5.18 (0.22)
log k¯5 (averaged microconstant) [1, 7]: 5.24 (0.22)
log k¯6 (averaged microconstant) [1, 7]: 4.89 (0.17)
log k¯1 (averaged microconstant) [1, 8]: 5.73 (0.02)
log k¯2 (averaged microconstant) [1, 8]: 5.64 (0.02)
log k¯3 (averaged microconstant) [1, 8]: 5.51 (0.02)
log k¯4 (averaged microconstant) [1, 8]: 5.33 (0.01)
log k¯5 (averaged microconstant) [1, 8]: 5.13 (0.01)
log k¯6 (averaged microconstant) [1, 8]: 4.95 (0.02)
log k¯7 (averaged microconstant) [1, 8]: 4.82 (0.02)
log k¯8 (averaged microconstant) [1, 8]: 4.73 (0.02)
log K1 [1, 9]: 6.64 (0.02)
log K2 [1, 9]: 6.18 (0.02)
log K3 [1, 9]: 5.81 (0.02)
log K4 [1, 9]: 5.43 (0.01)
log K5 [1, 9]: 5.03 (0.01)
log K6 [1, 9]: 4.65 (0.02)
log K7 [1, 9]: 4.28 (0.02)
log K8 [1, 9]: 3.83 (0.02)
pε12 = averaged interactivity parameter pε¯ [1]: 0.503
log kA (carboxylate core microconstant) [1]: 5.735 and 5.73
log k [1]: 5.22
Compound: O=C(O)CCSC[C@H]1O[C@@H]2O[C@H]3[C@H](O)[C@@H](O)[C@@H](O[C@H]4[C@H](O)[C@@H](O)[C@@H](O[C@H]5[C@H](O)[C@@H](O)[C@@H](O[C@H]6[C@H](O)[C@@H](O)[C@@H](O[C@H]7[C@H](O)[C@@H](O)[C@@H](O[C@H]8[C@H](O)[C@@H](O)[C@@H](O[C@H]9[C@H](O)[C@@H](O)[C@@H](O[C@H]1[C@H](O)[C@H]2O)O[C@@H]9CSCCC(=O)O)O[C@@H]8CSCCC(=O)O)O[C@@H]7CSCCC(=O)O)O[C@@H]6CSCCC(=O)O)O[C@@H]5CSCCC(=O)O)O[C@@H]4CSCCC(=O)O)O[C@@H]3CSCCC(=O)O [Suγ-CD, sugammadex, reference compound]

log K5 [1, 3]: 4.54 (0.06)
log K7 [1, 3]: 3.69 (0.03)
log K1 [1, 4]: 6.60 (0.03)
log K2 [1, 4]: 6.18 (0.04)
log K3 [1, 4]: 5.27 (0.08)
macroscopic pKa, 1st of the set [1, 5]: 3.82
macroscopic pKa, 2nd of the set [1, 5]: 4.31
macroscopic pKa, 3rd of the set [1, 5]: 4.73
macroscopic pKa, 4th of the set [1, 5]: 5.18
macroscopic pKa, 5th of the set [1, 5]: 5.64
macroscopic pKa, 6th of the set [1, 5]: 6.06
macroscopic pKa, 7th of the set [1, 5]: 6.54
log k¯1 (averaged microconstant) [1, 6]: 5.75 (0.03)
log k¯2 (averaged microconstant) [1, 6]: 5.71 (0.04)
log k¯3 (averaged microconstant) [1, 6]: 5.04 (0.08)
log k¯5 (averaged microconstant) [1, 7]: 4.76 (0.06)
log k¯7 (averaged microconstant) [1, 7]: 4.53 (0.03)
log k¯1 (averaged microconstant) [1, 8]: 5.70 (0.02)
log k¯2 (averaged microconstant) [1, 8]: 5.58 (0.02)
log k¯3 (averaged microconstant) [1, 8]: 5.42 (0.02)
log k¯4 (averaged microconstant) [1, 8]: 5.18 (0.01)
log k¯5 (averaged microconstant) [1, 8]: 4.95 (0.02)
log k¯6 (averaged microconstant) [1, 8]: 4.78 (0.02)
log k¯7 (averaged microconstant) [1, 8]: 4.67 (0.02)
log K1 [1, 9]: 6.54 (0.02)
log K2 [1, 9]: 6.06 (0.02)
log K3 [1, 9]: 5.64 (0.02)
log K4 [1, 9]: 5.18 (0.01)
log K5 [1, 9]: 4.73 (0.02)
log K6 [1, 9]: 4.31 (0.02)
log K7 [1, 9]: 3.82 (0.02)
pε12 = averaged interactivity parameter pε¯ [1]: 0.5144
log kA (carboxylate core microconstant) [1]: 5.697 and 5.70
log k [1]: 5.17
Compound: O=C(O)CCSC[C@H]1O[C@@H]2O[C@H]3[C@H](O)[C@@H](O)[C@@H](O[C@H]4[C@H](O)[C@@H](O)[C@@H](O[C@H]5[C@H](O)[C@@H](O)[C@@H](O[C@H]6[C@H](O)[C@@H](O)[C@@H](O[C@H]7[C@H](O)[C@@H](O)[C@@H](O[C@H]8[C@H](O)[C@@H](O)[C@@H](O[C@H]1[C@H](O)[C@H]2O)O[C@@H]8CSCCC(=O)O)O[C@@H]7CSCCC(=O)O)O[C@@H]6CSCCC(=O)O)O[C@@H]5CSCCC(=O)O)O[C@@H]4CSCCC(=O)O)O[C@@H]3CSCCC(=O)O [Suβ-CD, subetadex]
log K1 ([2]; potentiometric): 6.49 (1)
log K2 ([2]; potentiometric): 5.69 (1)
log K3 ([2]; potentiometric): 5.25 (1)
log K4 ([2]; potentiometric): 4.75 (1)
log K5 ([2]; potentiometric): 4.31 (1)
log K6 ([2]; potentiometric): 3.78 (1)
log K7 ([2]; potentiometric): <3
log kA [2]: 5.64

log K4 [1, 3]: 4.70 (0.14)
log K6 [1, 3]: 3.77 (0.07)
log K1 [1, 4]: 6.43 (0.07)
log K2 [1, 4]: 5.79 (0.09)
log K3 [1, 4]: 5.26 (0.11)
pKa ([1]; converted from optimized microscopic basicity parameters (site-binding model), read-out: macroscopic pKa, 1st of the set): 3.84
pKa ([1]; converted from optimized microscopic basicity parameters (site-binding model), read-out: macroscopic pKa, 2nd of the set): 4.35
pKa ([1]; converted from optimized microscopic basicity parameters (site-binding model), read-out: macroscopic pKa, 3rd of the set): 4.81
pKa ([1]; converted from optimized microscopic basicity parameters (site-binding model), read-out: macroscopic pKa, 4th of the set): 5.31
pKa ([1]; converted from optimized microscopic basicity parameters (site-binding model), read-out: macroscopic pKa, 5th of the set): 5.78
pKa ([1]; converted from optimized microscopic basicity parameters (site-binding model), read-out: macroscopic pKa, 6th of the set): 6.28
log k¯1 (averaged microconstant) [1, 6]: 5.65 (0.07)
log k¯2 (averaged microconstant) [1, 6]: 5.39 (0.09)
log k¯3 (averaged microconstant) [1, 6]: 5.13 (0.12)
log k¯6 (averaged microconstant) [1, 7]: 4.55 (0.07)
log k¯1 (averaged microconstant) [1, 8]: 5.51 (0.02)
log k¯2 (averaged microconstant) [1, 8]: 5.38 (0.02)
log k¯3 (averaged microconstant) [1, 8]: 5.18 (0.02)
log k¯4 (averaged microconstant) [1, 8]: 4.94 (0.02)
log k¯5 (averaged microconstant) [1, 8]: 4.75 (0.02)
log k¯6 (averaged microconstant) [1, 8]: 4.62 (0.02)
log K1 [1, 9]: 6.28 (0.02)
log K2 [1, 9]: 5.78 (0.02)
log K3 [1, 9]: 5.31 (0.02)
log K4 [1, 9]: 4.81 (0.02)
log K5 [1, 9]: 4.35 (0.02)
log K6 [1, 9]: 3.84 (0.02)
log kA ([1]; site-binding model with two interactivity parameters (pε12 and pε13), overparametrized): 5.63 (7)
pε12 [1, 10]: 0.28
pε13 [1, 10]: 0.28
log k [1]: 5.049
Compound: O=C(O)CCSC[C@H]1O[C@@H]2O[C@H]3[C@H](O)[C@@H](O)[C@@H](O[C@H]4[C@H](O)[C@@H](O)[C@@H](O[C@H]5[C@H](O)[C@@H](O)[C@@H](O[C@H]6[C@H](O)[C@@H](O)[C@@H](O[C@H]7[C@H](O)[C@@H](O)[C@@H](O[C@H]1[C@H](O)[C@H]2O)O[C@@H]7CSCCC(=O)O)O[C@@H]6CSCCC(=O)O)O[C@@H]5CSCCC(=O)O)O[C@@H]4CSCCC(=O)O)O[C@@H]3CSCCC(=O)O [Suα-CD, sualphadex]

log K ([1]; standard macroscopic evaluation, Equation (3), n = 1): 4.35 (0.01)
Compound: O=C(O)CCSC[C@H]1O[C@@H]2O[C@H]3[C@H](O)[C@@H](O)[C@@H](O[C@H]4[C@H](O)[C@@H](O)[C@@H](O[C@H]5[C@H](O)[C@@H](O)[C@@H](O[C@H]6[C@H](O)[C@@H](O)[C@@H](O[C@H]7[C@H](O)[C@@H](O)[C@@H](O[C@H]8[C@H](O)[C@@H](O)[C@@H](O[C@H]9[C@H](O)[C@@H](O)[C@@H](O[C@H]1[C@H](O)[C@H]2O)O[C@@H]9CO)O[C@@H]8CO)O[C@@H]7CO)O[C@@H]6CO)O[C@@H]5CO)O[C@@H]4CO)O[C@@H]3CO [mono-Suγ-CD, mono-sugammadex]
